Assay in all cases: DTP human tumour cell line panel, 48 h
In test [1] the test system is A498.
Test [2] deals with ACHN.
Test [3] relates to CAKI-1.
For test [4], the system named is DU-145.
In test [5] the test system is HCT-15.
In test [6] the test system is HOP-62.
Test [7] relates to K562.
Test [8] deals with KM12.
For test [9], the system named is MCF7.
Test [10] deals with MDA-MB-231.
Test [11] concerns NCI-H460.
The test system of test [12] is OVCAR-3.
For test [13], the system named is OVCAR-4.
For test [14], the system named is OVCAR-8.
The test system of test [15] is RPMI-8226.
The test system of test [16] is SF-539.
For test [17], the system named is SK-MEL-2.
In test [18] the test system is SNB-19.
Test [19] has as its system SW-620.
The test system of test [20] is UACC-257.

Results on 4 compounds are retold here after ChEMBL document CHEMBL1201862, “PubChem BioAssay data set” (2004).

Each structure is given as a SMILES string.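 Grown in 96-well plates, cells were treated for 48 hours with each compound at five concentrations. Insufficient inhibition: endpoint recorded as highest concentration tested. At the GI50, growth is halved.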 Calls of active or inactive are those of the source. Cut-off read from the data, not from the text of the source: active = GI50 up to about 1.1 µM and inactive = higher. Some results are limits rather than exact numbers.

Turning to `CC[C@H](C)[C@@H]([C@@H](CC(=O)N1CCC[C@H]1[C@H](OC)[C@@H](C)C(=O)NCCc1ccccc1)OC)N(C)C(=O)C(NC(=O)[C@H](C(C)C)N(C)C)C(C)C` (stereo not given in full), the GI50 in test [1] was 0.000266 µM (active); in test [2] it was 0.000757 µM (active); in test [3] it was 0.00216 µM (active); in test [4], 0.000227 µM (active); in [5] it was 0.00201 µM; in test [6], 0.000235 µM (active). Also, the GI50 in [7] is 6.68e-05 µM (active); in test [8] it was 8.57e-05 µM (active); in [9] it was 4.54e-05 µM (active); in test [10] it was 0.000526 µM (active); in [11] it was 0.000211 µM (active); in test [12], 4.09e-05 µM (active). For the same compound, the GI50 is 0.00094 µM (active) in test [13]; 0.000333 µM (active) in test [14]; 0.000203 µM (active) in test [15]; 0.000232 µM (active) in test [16]; 0.000423 µM (active) in [17]; 0.000395 µM (active) in test [18]. The GI50 in test [19] is 0.000249 µM (active); in test [20] it was 0.00139 µM (active).
Regarding `O=S1(=O)NN=C(NCc2ccc(F)cc2)c2ccccc21`, the GI50 is > 100 µM (inactive) in test [1]; 95.5 µM (inactive) in [2]; > 89.5 µM (inactive) in [3]; > 100 µM (inactive) in test [4]; greater than 64.1 µM in test [5]; 39.6 µM (inactive) in test [6]. The GI50 in test [7] is 21 µM (inactive); in [8] it was > 100 µM (inactive); in [9], > 100 µM (inactive); in [10], > 100 µM (inactive); in [11], > 31.6 µM (inactive); in [12], 67.5 µM (inactive). The GI50 in test [13] is > 48 µM (inactive); in test [14], > 94.2 µM (inactive); in test [15], > 40.7 µM (inactive); in test [16], > 85.5 µM (inactive); in test [17], > 100 µM (inactive); in test [18], 39.3 µM (inactive). The GI50 in test [19] was > 79.3 µM (inactive); in test [20], 69.2 µM (inactive).
For `CC1(C)CC(=O)C2=C(C1)c1c(ccc3ccccc13)NC2c1cn(Cc2ccc(Cl)cc2)c2ccccc12` (stereo not given), the GI50 is 2.55 µM (inactive) in test [1]; 61.9 µM (inactive) in [2]; 13.3 µM (inactive) in test [3]; > 100 µM (inactive) in [4]; greater than 100 µM in test [5]; 40.9 µM (inactive) in test [6]. Also, the GI50 in test [7] was 50.9 µM (inactive); in test [8], > 100 µM (inactive); in test [9], > 100 µM (inactive); in [10], > 100 µM (inactive); in test [11], 23.9 µM (inactive); in test [12], 18.7 µM (inactive). Further, the GI50 in test [13] is > 100 µM (inactive); in [14], > 100 µM (inactive); in test [15] it was > 100 µM (inactive); in test [16], > 100 µM (inactive); in [17], > 100 µM (inactive); in test [18], 75 µM (inactive). Further, the figures for the GI50 in test [19] and in test [20] were > 100 µM (inactive) and 94.2 µM (inactive), respectively.
On to `O=[N+]([O-])C(=C(\Cl)NCCO)/C(Cl)=C(/Cl)Br`, for which the GI50 in test [1] was 4.66 µM (inactive); in [2], 2.75 µM (inactive); in [3], 0.558 µM (active); in [4], 7.74 µM (inactive); in test [5], 1.32 µM; in test [6], 10.8 µM (inactive). For the same compound, the 50% growth inhibitory concentration (GI50) in test [7] was 0.665 µM (active); in test [8], 5.57 µM (inactive); in [9], 0.716 µM (active); in [10] it was 1.74 µM (inactive); in test [11] it was 2.7 µM (inactive); in test [12] it was 1.32 µM (inactive). Moreover, the GI50 in test [13] is 0.716 µM (active); in [14], 1.87 µM (inactive); in [15] it was 1.48 µM (inactive); in test [16] it was 2.34 µM (inactive); in test [17] it was 1.03 µM (active); in test [18], 6.7 µM (inactive). Further, the GI50 in test [19] was 1.17 µM (inactive); in test [20], 1.87 µM (inactive).

What is called GI50 is the concentration giving 50% growth inhibition.
